Assay results reported in US9745305B2, “Modulators of methyl modifying enzymes, compositions and uses thereof” (Constellation Pharmaceuticals, Inc., priority 2013, dated 2017).

Assays:
[1] = tested on: H3K27me3 mark in Hela cells expressing wild type EZH2; test: H3K27me3 Alpha Hela Assay (AlphaLISA); type: cell-based; conditions: Homo sapiens, 72 hrs, read-out: H3K27me3_Alpha_HeLa (EC50)
Outline: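 HeLa cells (1,000/well) were exposed 72 h at 37 °C to ten 3-fold compound dilutions. H3K27me3 was then measured by AlphaLISA after histone lysis/extraction, using anti-K27me3 acceptor beads, biotinylated anti-H3 and streptavidin donor beads. Signals were normalized to DMSO and fitted to dose-response curves; a duplicate plate measured viability.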

[2] = tested on: H3K27me3 mark in Hela cells expressing wild type EZH2; test: H3K27me3 MSD Hela Assay; type: cell-based; conditions: Homo sapiens, HeLa, 96 h, read-out: H3K27me3_MSD_HeLa (EC50)
Procedure: H3K27me3 MSD Hela Assay. Trypsinized HeLa cells were counted and diluted in 10% DMEM (Life Technologies, Cat. #10569) to 5000 cells/75 μL. Seventy-five μL of cells were place in each well of a 96-well flat-bottomed plate and incubated at 37° C. for 4 hours. Twenty-five μL of test compound (at various concentrations) was added to the cells and incubation continued at 37° C. for 96 hours. Media was then removed and the cells rinsed once with ice cold PBS. Forty μL of ice-cold MSD Buffer AT (10 mM HEPES, pH 7.9, 5 mM MgCl2, 0.25M sucrose, Benzonase (1:10000), 1% Triton X-100 supplemented with fresh 1× Protease Inhibitor cocktail and 1 mM 4-(2-Aminoethyl)benzenesulfonyl fluoride hydrochloride (AEBSF)) was added to each well and the plates placed on ice for 30 minutes. Ten μL of 5M NaCl was then added to each well and incubation on ice continued for another 15 minutes. The material in each well was suspended pipetting up and down and then transferred to a new 96 well plate. The emptied wells were rinsed with 150 uL ice-cold 20 mM Tris pH 7.5, 1 mM EDTA, 1 mM EGTA, supplemented with fresh 1× Protease Inhibitor cocktail and 1 mM AEBSF (“NO salt NO detergent buffer) and transferred to the respective wells in the new plate. Three hundred μL of NO Salt NO detergent buffer was then added to each well of lysates and the plates frozen at −80° C.
On the same day, an appropriate number of MSD standard bind 96-well plates were coated with 30 μL/well of total H3 capture antibody (Millipore, Cat # MAB3422) at 1 μg/mL concentration in PBS. The antibody solution was evenly distributed first by tapping gently on the sides of the plates and then by shaking the plates for a few minutes at 1000 rpm. Antibody coated plates were stored at 4° C. overnight.
The next day the lysates are thawed to RT. The antibody coated MSD plates are washed 3× with TBS-T (Tris-buffered saline (Fisher Scientific, Cat #BP2471-1)+0.2% Tween-20). One-hundred fifty μL of 5% Blocker A in TBS-T is added to each well. The wells are covered and shaken on a shaker at RT for one hour. The Blocker A step is repeated a second time. After removing the blocker, 25 μL of cell lysate is transferred into each antibody coated well. The plates are shaken for 2 hours at RT, the lysate removed and the plates again washed with Blocker A in TBS-T. Twenty-five μL of appropriate freshly prepared antibody mix (including both primary and secondary antibodies) is added to each well and the plates shaken for 1 hour at RT.
Both H3 antibodies were obtained from Cell Signalling (Cat #s 4499 and 9733). The goat anti-rabbit antibody was obtained from Meso-Scale Discovery (Cat #R32AB-1).
The antibody mix was then removed and the wells washed with Blocker A. One hundred-fifty μL of freshly prepared 1×MSD Read Buffer (Meso-Scale Discovery; Cat #R927C-2) was then added to each well and the plates read on a MSD Sector 2400 Plate Reader.
Data was analyzed using Assay Assistant (Constellation Pharmaceuticals In-house product) and Activity Base (IDBS Ltd, Surrey, UK) template. Data files were imported to Assay Assistant and assay conditions were specified. A unique Analysis ID was created and the data files exported to Activity Base. An analysis template was created on Activity Base to measure dose-dependent inhibition of H3K27me3 mark and cell viability respectively. Readout of DMSO wells were used to normalize the data. Resulting curves were fitted using Activity base software Model 205 (IDBS Ltd, Surrey, UK). The data was checked for quality, validated and integrated in excel format using SARview (IDBS Ltd, Surrey, UK).

Row | EC50 [1] [µM] | EC50 [2] [µM] | SMILES
1 | < 0.4 | < 0.4 | COc1cc(C)[nH]c(=O)c1CNC(=O)c1c(C)c(C(C)c2ccccc2)n2ncccc12 (racemic) [Compound 101, (±)-N-((4-methoxy-6-methyl-2-oxo-1,2-dihydropyridin-3-yl)methyl)-6-methyl-7-(1-phenylethyl)pyrrolo[1,2-b]pyridazine-5-carboxamide]
2 | < 0.4 | < 0.4 | COc1cc(C)[nH]c(=O)c1CNC(=O)c1c(C)c(C(C)C2CCOCC2)n2ncccc12 (racemic) [Compound 116, (±)-N-((4-methoxy-6-methyl-2-oxo-1,2-dihydropyridin-3-yl)methyl)-6-methyl-7-(1-(tetrahydro-2H-pyran-4-yl)ethyl)pyrrolo[1,2-b]pyridazine-5-carboxamide]
3 | < 0.4 | < 0.4 | COc1cc(C)[nH]c(=O)c1CNC(=O)c1c(C)c(C(C)c2ccccc2)n2ncccc12 (single isomer, unassigned) [Compound 105, (R or S)-N-((4-methoxy-6-methyl-2-oxo-1,2-dihydropyridin-3-yl)methyl)-6-methyl-7-(1-phenylethyl)pyrrolo[1,2-b]pyridazine-5-carboxamide]
